Laboratory results reported in US7741354B2, “Inhibitors of glutaminyl cyclase” (Probiodrug AG, priority 2006, dated 2010).

Molecular target: hQC (Homo sapiens, UniProt Q16769)
Assay: Fluorometric (fluorescent) assay of hQC inhibition, IC50
Assay type: biochemical
Conditions: hQC inhibition; read-out: IC50
Method in brief: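 QC activity followed at 30° C via pyroglutamyl aminopeptidase-coupled release of fluorophore, using either H-Gln-βNA (0.2 mM; ex/em 320/410 nm; 0.2 M Tris/HCl pH 8.0, 20 mM EDTA) or H-Gln-AMC (ex/em 380/460 nm; 0.05 M Tris/HCl pH 8.0, 5 mM EDTA).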

Chain of hQC (Q16769 29-361): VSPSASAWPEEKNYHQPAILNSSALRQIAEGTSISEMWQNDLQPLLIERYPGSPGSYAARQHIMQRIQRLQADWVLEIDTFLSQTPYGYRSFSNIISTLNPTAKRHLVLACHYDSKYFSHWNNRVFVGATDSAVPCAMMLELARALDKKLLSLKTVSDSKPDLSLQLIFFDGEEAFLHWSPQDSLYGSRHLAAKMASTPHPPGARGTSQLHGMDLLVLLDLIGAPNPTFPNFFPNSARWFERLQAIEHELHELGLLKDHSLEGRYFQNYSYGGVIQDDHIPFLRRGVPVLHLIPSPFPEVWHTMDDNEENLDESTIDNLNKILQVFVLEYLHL

| Compound | IC50 |
| --- | --- |
| CSc1ccc(C(Nc2ccc3[nH]cnc3c2)c2nnnn2CC2COC(C)(C)O2)cc1 (stereo not drawn) [compound 130, (1H-Benzoimidazol-5-yl)-[[1-(2,2-dimethyl-[1,3]dioxolan-4-ylmethyl)-1H-tetrazol-5-yl]-(4-methylsulfanyl-phenyl)-methyl]-amine] | 7.6 µM |
| CN(C)c1ccc(C(Nc2ccc3[nH]cnc3c2)c2nnnn2Cc2cccnc2)cc1 (stereo not drawn) [compound 115, (1H-Benzoimidazol-5-yl)-[(4-dimethylamino-phenyl)-(1-pyridin-3-ylmethyl-1H-tetrazol-5-yl)-methyl]-amine] | 5.8 µM |
| Clc1ccc(C(Nc2ccc3[nH]cnc3c2)c2nnnn2Cc2ccccc2Cl)cc1 (stereo not drawn) [compound 127, (1H-Benzoimidazol-5-yl)-[[1-(2-chloro-benzyl)-1H-tetrazol-5-yl]-(4-chloro-phenyl)-methyl]-amine] | 3.1 µM |
| Clc1ccc(Cn2nnnc2C(Nc2ccc3[nH]cnc3c2)c2ccc(Cl)cc2)cc1 (stereo not drawn) [compound 136, (1H-Benzoimidazol-5-yl)-[[1-(4-chloro-benzyl)-1H-tetrazol-5-yl]-(4-chloro-phenyl)-methyl]-amine] | 4 µM |

Results, then the compound that gave them:

| IC50 | Compound |
| --- | --- |
| 8.5 µM | O=[N+]([O-])c1ccc(-n2nnnc2C(Nc2ccc3[nH]cnc3c2)c2csc3ccccc23)cc1 (stereo not drawn) [compound 206] |
| 1.3 µM | CCOC(=O)C1CCCCC1n1nnnc1C(Nc1ccc2[nH]cnc2c1)c1csc2ccccc12 (stereo not drawn) [compound 145] |
| 5.8 µM | CCOC(=O)C1CCCCC1n1nnnc1C(Nc1ccc2[nH]cnc2c1)c1ccc(OC)cc1 (stereo not drawn) [compound 184] |
| 0.4 µM | COc1ccc(C(Nc2ccc3[nH]cnc3c2)c2nnnn2Cc2cccnc2)cc1Br (stereo not drawn) [compound 142, (1H-Benzoimidazol-5-yl)-[(3-bromo-4-methoxy-phenyl)-(1-pyridin-3-ylmethyl-1H-tetrazol-5-yl)-methyl]-amine] |
| 9.4 µM | Oc1cccc(C(Nc2ccc3[nH]cnc3c2)c2nnnn2CC2CCCO2)c1 (stereo not drawn) [compound 152] |
| 4 µM | COc1ccc(C(Nc2ccc3[nH]cnc3c2)c2nnnn2CC(=O)OC(C)(C)C)cc1 (stereo not drawn) [compound 172, {5-[(1H-Benzoimidazol-5-ylamino)-(4-methoxy-phenyl)-methyl]-tetrazol-1-yl}-acetic acid tert-butyl ester] |
| 4.9 µM | OCc1ccc(C(Nc2ccc3[nH]cnc3c2)c2nnnn2-c2ccccc2OCc2ccccc2)o1 (stereo not drawn) [compound 143, (5-{(1H-Benzoimidazol-5-ylamino)-[1-(2-benzyloxy-phenyl)-1H-tetrazol-5-yl]-methyl}-furan-2-yl)-methanol] |
| 9.4 µM | c1ccc(C(c2ccccc2)n2nnnc2C(Nc2ccc3[nH]cnc3c2)c2cccnc2)cc1 (stereo not drawn) [compound 158, [(1-Benzhydryl-1H-tetrazol-5-yl)-pyridin-3-yl-methyl]-(1H-benzoimidazol-5-yl)-amine] |
| 0.4 µM | Clc1ccc(Cn2nnnc2C(Nc2ccc3[nH]cnc3c2)c2ccc3nsnc3c2)cc1 (stereo not drawn) [compound 166] |
| 5.8 µM | Oc1ccc(Cl)cc1C(Nc1ccc2[nH]cnc2c1)c1nnnn1C1CCCCC1 (stereo not drawn) [compound 193, 2-[(1H-Benzoimidazol-5-ylamino)-(1-cyclohexyl-1H-tetrazol-5-yl)-methyl]-4-chloro-phenol] |
| 4.9 µM | CC1(C)OCC(Cn2nnnc2C(Nc2ccc3[nH]cnc3c2)c2cnc3ccccc3c2)O1 (stereo not drawn) [compound 156, (1H-Benzoimidazol-5-yl)-{[1-(2,2-dimethyl-[1,3]dioxolan-4-ylmethyl)-1H-tetrazol-5-yl]-quinolin-3-yl-methyl}-amine] |
| 4 µM | COc1ccc(C(Nc2ccc3[nH]cnc3c2)c2nnnn2CC(=O)N2CCc3ccccc3C2)cc1 (stereo not drawn) [compound 209, 2-{5-[(1H-Benzoimidazol-5-ylamino)-(4-methoxy-phenyl)-methyl]-tetrazol-1-yl}-1-(3,4-dihydro-1H-isoquinolin-2-yl)-ethanone] |
| 5.8 µM | CCOC(=O)C1CCCCC1n1nnnc1C(Nc1ccc2[nH]cnc2c1)c1ccc(CC)cc1 (stereo not drawn) [compound 168] |

Same assay, conditions: purified compound from preparative synthesis; fluorescent assay; read-out: IC50 hQC

| IC50 | Compound |
| --- | --- |
| 3.47 µM | C1=COC(C(NCCCn2ccnc2)c2nnnn2C2CCCC2)CC1 (stereo not drawn) [Compound 28, [(1-Cyclopentyl-1H-tetrazol-5-yl)-(3,4-dihydro-2H-pyran-2-yl)-methyl]-(3-imidazol-1-yl-propyl)-amine] |
| 0.45 µM | Clc1ccc(Cn2nnnc2C(NCCCn2ccnc2)c2ccc3[nH]ccc3c2)cc1 (stereo not drawn) [Compound 6, [[1-(4-Chloro-benzyl)-1H-tetrazol-5-yl]-(1H-indol-5-yl)-methyl]-(3-imidazol-1-yl-propyl)-amine] |

Same assay, conditions: read-out: IC50

| IC50 | Compound |
| --- | --- |
| 3.1 µM | c1ccc2oc(C(Nc3ccc4[nH]cnc4c3)c3nnnn3C3CCCCC3)cc2c1 (stereo not drawn) [compound 79, [Benzofuran-2-yl-(1-cyclohexyl-1H-tetrazol-5-yl)-methyl]-(1H-benzoimidazol-5-yl)-amine] |
| 4 µM | COC(=O)Cn1nnnc1C(NCCCn1ccnc1)c1ccc(OC)c(O)c1 (stereo not drawn) [compound 58, {5-[(3-Hydroxy-4-methoxy-phenyl)-(3-imidazol-1-yl-propylamino)-methyl]-tetrazol-1-yl}-acetic methyl ester] |
| 2.2 µM | COC(=O)Cn1nnnc1C(NCCCn1ccnc1)c1cc(C)ccc1O (stereo not drawn) [compound 51, {5-[(2-Hydroxy-5-methyl-phenyl)-(3-imidazol-1-yl-propylamino)-methyl]-tetrazol-1-yl}-acetic methyl ester] |
| 7.6 µM | Cc1ccc2c(C(NCCCn3ccnc3)c3nnnn3C[C@@H]3CCCO3)c[nH]c2c1 (stereo partly drawn) [compound 16, (3-Imidazol-1-yl-propyl)-((6-methyl-1H-indol-3-yl)-{1-[(S)-1-(tetrahydro-furan-2-yl)methyl]-1H-tetrazol-5-yl}-methyl)-amine] |
| 5.8 µM | COC(=O)Cn1nnnc1C(NCCCn1ccnc1)c1ccc2[nH]ccc2c1 (stereo not drawn) [compound 54, {5-[(3-Imidazol-1-yl-propylamino)-(1H-indol-5-yl)-methyl]-tetrazol-1-yl}-acetic methyl ester] |
| 0.4 µM | C1=COC(C(NCCCn2ccnc2)c2nnnn2C2CCCC2)CC1 (stereo not drawn) [Compound 28, [(1-Cyclopentyl-1H-tetrazol-5-yl)-(3,4-dihydro-2H-pyran-2-yl)-methyl]-(3-imidazol-1-yl-propyl)-amine] |
| 1.3 µM | Clc1ccc(Cn2nnnc2C(NCCCn2ccnc2)c2ccc3ccccc3n2)cc1 (stereo not drawn) [compound 7, {[1-(4-Chloro-benzyl)-1H-tetrazol-5-yl]-quinolin-2-yl-methyl}-(3-imidazol-1-yl-propyl)-amine] |
| 6.7 µM | CC(CC(Nc1ccc2[nH]cnc2c1)c1nnnn1C(C)(C)C)c1ccccc1 (stereo not drawn) [compound 106, (1H-Benzoimidazol-5-yl)-[1-(1-tert-butyl-1H-tetrazol-5-yl)-3-phenyl-butyl]-amine] |
| 5.8 µM | c1ccc(CC(Nc2ccc3[nH]cnc3c2)c2nnnn2Cc2cccnc2)cc1 (stereo not drawn) [compound 73, (1H-Benzoimidazol-5-yl)-[2-phenyl-1-(1-pyridin-3-ylmethyl-1H-tetrazol-5-yl)-ethyl]-amine] |
| 2.2 µM | COc1ccc(C(Nc2ccc3[nH]cnc3c2)c2nnnn2C2CCCCC2)cc1 (stereo not drawn) [compound 72, (1H-Benzoimidazol-5-yl)-[(1-cyclohexyl-1H-tetrazol-5-yl)-(4-methoxy-phenyl)-methyl]-amine] |
| 2.2 µM | c1ccc2nc(C(NCCCn3ccnc3)c3nnnn3C[C@@H]3CCCO3)ccc2c1 (stereo partly drawn) [compound 14, (3-Imidazol-1-yl-propyl)-(quinolin-2-yl-{1-[(S)-1-(tetrahydro-furan-2-yl)methyl]-1H-tetrazol-5-yl}-methyl)-amine] |
| 6.7 µM | N#Cc1cc(C(NCCCn2ccnc2)c2nnnn2Cc2ccc(Cl)cc2)ccc1F (stereo not drawn) [compound 5, 5-[[1-(4-Chloro-benzyl)-1H-tetrazol-5-yl]-(3-imidazol-1-yl-propylamino)-methyl]-2-fluoro-benzonitrile] |
| 5.8 µM | c1ccc2nc(C(NCCCn3ccnc3)c3nnnn3C3CC3)ccc2c1 (stereo not drawn) [compound 70, [(1-Cyclopropyl-1H-tetrazol-5-yl)-quinolin-2-yl-methyl]-(3-imidazol-1-yl-propyl)-amine] |
| 0.4 µM | COC(=O)Cn1nnnc1C1(NCCCn2ccnc2)CCC1 [compound 49, {5-[1-(3-Imidazol-1-yl-propylamino)-cyclobutyl]-tetrazol-1-yl}-acetic methyl ester] |
| 1.3 µM | CC(C)(C)OC(=O)Cn1nnnc1C(Nc1ccc2[nH]cnc2c1)c1ccc(Br)cc1 (stereo not drawn) [compound 87, {5-[(1H-Benzoimidazol-5-ylamino)-(4-bromo-phenyl)-methyl]-tetrazol-1-yl}-acetic acid tert-butyl ester] |
| 3.1 µM | C=CCn1nnnc1C(NCCCn1ccnc1)c1ccc2ccccc2n1 (stereo not drawn) [compound 47, [(1-Allyl-1H-tetrazol-5-yl)-quinolin-2-yl-methyl]-(3-imidazol-1-yl-propyl)-amine] |
| 9.4 µM | Cc1ccc2occ(C(Nc3ccc4[nH]cnc4c3)c3nnnn3CC3CCCO3)c(=O)c2c1 (stereo not drawn) [compound 86, 3-{(1H-Benzoimidazol-5-ylamino)-[1-(tetrahydro-furan-2-ylmethyl)-1H-tetrazol-5-yl]-methyl}-6-methyl-chromen-4-one] |
| 8.5 µM | COc1cc(C)c(C(Nc2ccc3[nH]cnc3c2)c2nnnn2C(C)(C)C)cc1C (stereo not drawn) [compound 99] |
| 3.1 µM | c1cn(CCCNC(c2ccc3[nH]ccc3c2)c2nnnn2C2CCCC2)cn1 (stereo not drawn) [compound 26] |
| 0.4 µM | Clc1ccc(Cn2nnnc2C(NCCCn2ccnc2)c2ccc3[nH]ccc3c2)cc1 (stereo not drawn) [Compound 6, [[1-(4-Chloro-benzyl)-1H-tetrazol-5-yl]-(1H-indol-5-yl)-methyl]-(3-imidazol-1-yl-propyl)-amine] |
| 2.2 µM | Oc1cccc2ccc(C(NCCCn3ccnc3)c3nnnn3C3CCCC3)nc12 (stereo not drawn) [compound 25, 2-[(1-Cyclopentyl-1H-tetrazol-5-yl)-(3-imidazol-1-yl-propylamino)-methyl]-quinolin-8-ol] |
| 3.1 µM | c1ccc(-c2ccc(C(Nc3ccc4[nH]cnc4c3)c3nnnn3CC3CCCO3)cc2)nc1 (stereo not drawn) [compound 76, (1H-Benzoimidazol-5-yl)-{(4-pyridin-2-yl-phenyl)-[1-(tetrahydro-furan-2-ylmethyl)-1H-tetrazol-5-yl]-methyl}-amine] |
| 4.9 µM | COc1ccc(C(Nc2ccc3[nH]cnc3c2)c2nnnn2CC2CCCO2)cc1 (stereo not drawn) [compound 88, (1H-Benzoimidazol-5-yl)-{(4-methoxy-phenyl)-[1-(tetrahydro-furan-2-ylmethyl)-1H-tetrazol-5-yl]-methyl}-amine] |
